The values below are quoted from earlier work in US20070122486A1, “Nanoparticulate insulin” (Elan Pharma International Limited, priority 2001, published 2007).

The conditions of the data set: physiological conditions.

On to “Soluble insulin: Available soluble composition of insulin, a 5.8 kD protein hormone”, for which the duration of activity entry is “about six” and the onset of activity entry is “about 30 minutes”.
